In patent US20240115656A1, “Treatment of Constipation-Predominant Irritable Bowel Syndrome” (Ironwood Pharmaceuticals, Inc., priority 2010, published 2024):
Positions of bridges follow the written chain, without caps; N, C: chain ends. Residues, ends and D or L forms follow the SMILES beside them.

Experiments:
[1] = Systemic levels of linaclotide after oral administration; type: in vivo; details: after oral administration at therapeutic dose levels
[2] = tested on: patients meeting modified Rome II criteria for constipation-predominant irritable bowel syndrome; test: Trial 1 (LIN-MD-31): randomized, double-blind, placebo-controlled trial with 12-week treatment period and randomized withdrawal period; type: in vivo, human
Protocol: (§1) Linaclotide capsules from Example 4 were administered in two multicenter, randomized, double-blind, placebo-controlled parallel-group trials.
Trial 1 (LIN-MD-31) was conducted on approximately 800 patients meeting modified Rome II criteria for constipation-predominant irritable bowel syndrome. The trial included a two-week pretreatment baseline period, a 12-week treatment period, and a randomized withdrawal period (see FIG. 1A).
(§2) The Pretreatment Period is defined as the 14 to 21 calendar days immediately before starting the trial during which patients provided information related to their daily bowel habits, daily assessment of the symptom severity (such as, e.g., abdominal pain), constipation severity, and use of other medicines, laxatives, suppositories, and/or enemas. Patients who satisfied the necessary criteria were entered into the Treatment Period.
(§3) In both trials, the Treatment Period began with randomization. In Trial 1, treatment lasted for 12 weeks. In Trial 2, treatment lasted for 26 weeks. Patients were randomized to approximately equal-sized treatment groups consisting of 266 μg linaclotide or a placebo, taken once daily in the morning 30 minutes before breakfast. Patients continued to provide daily assessments such as their daily bowel habit assessments and daily patient symptom severity assessments.
(§4) In both trials, daily assessment data for patients in both treatment groups were compiled to give the following primary, co-primary and secondary treatment efficacy endpoints, which have been defined by United States and European regulatory agencies for the study of the efficacy of IBS-C.
(§5) A patient was classified as a 9/12 Week APC 3+1 Responder if they were a weekly APC 3+1 Responder for ≥9 out of the 12 (i.e., 9/12) weeks of the study.
(§6) A patient was classified as a 9/12 Week CSBM 3+1 Responder if they were a weekly CSBM 3+1 Responder for ≥9/12 weeks.
(§7) A patient was classified as a 9/12 Week Abdominal Pain Responder if they were a weekly Abdominal Pain Responder for ≥9/12 weeks.
(§8) A patient was classified as a 6/12 Week APC+1 Responder if they were a weekly APC+1 Responder for ≥6 out of the 12 (i.e., 6/12) weeks of the study.
(§9) Also compiled from the patient daily data were the following secondary efficacy endpoints: • Change From Baseline (i.e., change from pre-treatment period) in CSBM Frequency Rate (measured as a weekly rate); • Change From Baseline (“CFB”) in SBM Frequency Rate (weekly rate); • Change From Baseline in Stool Consistency (measured on a 7-point BSFS); • Change From Baseline in Severity of Straining (measured on a 5-point scale); • Change From Baseline in Abdominal Pain (measured on a 11-point numerical rating scale and scored 0-10); • Change From Baseline in Abdominal Discomfort (measured on […] numerical rating scale and scored 0-10); • Change From Baseline in Bloating (measured on a 11-point numerical rating scale and scored 0-10); • 6/12 Week CSBM+1 Responder; • 6/12 Week Abdominal Pain Responder; and • Change From Baseline in Percent of Abdominal Pain-free Days (Pain-free is a score of 0 on the 0-10 point scale).
Patients who were randomized to linaclotide in the Treatment Period and completed the 12 weeks of the Treatment Period, the RW Population, were randomized to treatment with linaclotide or placebo in the RW Period as follows: half of the RW Population received placebo for the first half of the RW Period followed by administration of 266 μg linaclotide; one quarter of the RW Population received 266 μg linaclotide for the entire RW Period and the remaining one quarter of the RW Population received 266 μg linaclotide for the first half of the RW Period and placebo for the remainder of the RW Period. Patients that were randomized to placebo in the Treatment Period and completed the 12 weeks of the Treatment Period received 266 μg linaclotide in the RW Period.

[3] = tested on: patients meeting modified Rome II criteria for constipation-predominant irritable bowel syndrome; test: Trial 2 (MCP-103-302): randomized, double-blind, placebo-controlled trial with 26-week treatment period; type: in vivo, human
Protocol: as §1
Trial 2 (MCP-103-302) was conducted on approximately 805 patients meeting modified Rome II criteria for constipation-predominant irritable bowel syndrome (<3 CSBM/wk, ≤5 SBM/wk, abdominal pain≥3 on a 0-10 scale.) As in Trial 1, the trial included a two-week pretreatment baseline period; however, the treatment period was continued for 26 weeks rather than 12 weeks as in Trial 1, and no randomized withdrawal period was performed (see FIG. 1B).
as §2, §3, §4, §5, §6, §7, §8
In Trial 2, the above co-primary efficacy parameters, 12-week Abdominal Pain/Abdominal Discomfort Responder and 12-week IBS Degree of Relief Responder, were also computed for the full 26 week treatment period.
as §9

[4] = tested on: chronic constipation (CC); details: Phase 2b studies for CC; four-week treatment period; cited from earlier work
[5] = 266 μg linaclotide group, once daily, 12 weeks
[6] = 266 μg linaclotide group, once daily
[7] = 266 μg linaclotide group, once daily, first 12 weeks
[8] = 26-week treatment period, linaclotide-treated patients
[9] = after 12 weeks, linaclotide-treated patients
[10] = main secondary efficacy endpoint, full 26 week treatment period
[11] = throughout the 26-week treatment period, linaclotide-treated patients

C[C@@H]1NC(=O)[C@@H]2CCCN2C(=O)[C@H](CC(N)=O)NC(=O)[C@@H]2CSSC[C@H](N)C(=O)N[C@H]3CSSC[C@H](NC1=O)C(=O)N[C@@H]([C@@H](C)O)C(=O)NCC(=O)N[C@H](C(=O)N[C@@H](Cc1ccc(O)cc1)C(=O)O)CSSC[C@H](NC(=O)[C@H](Cc1ccc(O)cc1)NC(=O)[C@H](CCC(=O)O)NC3=O)C(=O)N2 [linaclotide, Cys1 Cys2 Glu3 Tyr4 Cys5 Cys6 Asn7 Pro8 Ala9 Cys10 Thr11 Gly12 Cys13 Tyr14] (H-CCEYCCNPACTGCY-OH; disulfide 1-6, 2-10, 5-13)
levels of linaclotide seen systemically [1]: no detectable levels | 6/12-week APC+1 pain responder rate [2, 5]: 33.6% | 6/12-week abdominal pain responder rate [2, 5]: 50.1% | 6/12 week CSBM+1 responder rate [2, 5]: 48.6% | 9/12-week APC 3+1 responder rate [2, 5]: 12.1% | 9/12-week CSBM 3+1 responder rate [2, 5]: 19.5% | 9/12-week abdominal pain responder rate [2, 5]: 34.3% | 12-week Abdominal Pain/Abdominal Discomfort Responder [2, 5]: 54.8% | 12-week IBS Degree of Relief Responder [2, 5]: 37.0% | rebound of IBS-C symptoms following discontinuation of linaclotide treatment ([2]; Randomized Withdrawal Period): no evidence of rebound of IBS-C symptoms | 12-week Abdominal Pain/Abdominal Discomfort Responder: Statistical Significance (266 μg vs. Placebo) ([2]; co-primary efficacy parameter): Yes | 12-week IBS Degree of Relief Responder: Statistical Significance (266 μg vs. Placebo) ([2]; co-primary efficacy parameter): Yes | adverse event: diarrhea with mild symptoms ([2]; linaclotide group): 9% | adverse event: diarrhea with moderate symptoms ([2]; linaclotide group): 8% | adverse event: diarrhea with severe symptoms ([2]; linaclotide group): 2% | overall rate of discontinuation due to adverse events ([2]; linaclotide group): 8% | patients reporting at least a 10% improvement in abdominal symptoms over 12 weeks ([2]; linaclotide treatment, FIG. 10): under 80% | adverse event: abdominal pain ([2]; linaclotide-treated patients): 5% | adverse event: diarrhea ([2]; linaclotide-treated patients): 19% | adverse event: flatulence ([2]; linaclotide-treated patients): 5% | adverse event: headache ([2]; linaclotide-treated patients): 5% | more CSBMs per week than with the placebo alone ([2]; on average, 12 weeks, FIG. 12C): about 1.5 CSBMs per week | time until abdominal pain was reduced over the pre-treatment baseline ([2]; on average, sustained throughout the treatment period): 1 to 3 days | 6/12 Week APC + 1 Responder: Statistical Significance (266 μg vs. Placebo) ([2]; primary efficacy endpoint): Yes | 9/12 Week APC 3 + 1 Responder: Statistical Significance (266 μg vs. Placebo) ([2]; primary efficacy endpoint): Yes | 9/12 Week Abdominal Pain Responder: Statistical Significance (266 μg vs. Placebo) ([2]; primary efficacy endpoint): Yes | 9/12 Week CSBM 3 + 1 Responder: Statistical Significance (266 μg vs. Placebo) ([2]; primary efficacy endpoint): Yes | 6/12 Week Abdominal Pain Responder: Statistical Significance (266 μg vs. Placebo) ([2]; secondary efficacy endpoint): Yes | 6/12 Week CSBM + 1 Responder: Statistical Significance (266 μg vs. Placebo) ([2]; secondary efficacy endpoint): Yes | 12-Week Abdominal Discomfort (CFB): Statistical Significance (266 μg vs. Placebo) ([2]; secondary efficacy endpoint): Yes | 12-Week Abdominal Pain (CFB): Statistical Significance (266 μg vs. Placebo) ([2]; secondary efficacy endpoint): Yes | 12-Week Bloating (CFB): Statistical Significance (266 μg vs. Placebo) ([2]; secondary efficacy endpoint): Yes | 12-Week CSBM Frequency Rate(CFB): Statistical Significance (266 μg vs. Placebo) ([2]; secondary efficacy endpoint): Yes | 12-Week Percent of Abdominal Pain-free Days (CFB): Statistical Significance (266 μg vs. Placebo) ([2]; secondary efficacy endpoint): Yes | 12-Week SBM Frequency Rate (CFB): Statistical Significance (266 μg vs. Placebo) ([2]; secondary efficacy endpoint): Yes | 12-Week Severity of Straining (CFB): Statistical Significance (266 μg vs. Placebo) ([2]; secondary efficacy endpoint): Yes | 12-Week Stool Consistency (CFB): Statistical Significance (266 μg vs. Placebo) ([2]; secondary efficacy endpoint): Yes | 12-week Abdominal Pain/Abdominal Discomfort Responder [3, 6]: 54.1% | 12-week IBS Degree of Relief Responder [3, 6]: 39.4% | 6/12-week APC+1 pain responder rate [3, 7]: 33.7% | 9/12-week APC 3+1 responder rate [3, 7]: 12.7% | 9/12-week CSBM 3+1 responder rate [3, 7]: 18.0% | 9/12-week abdominal pain responder rate [3, 7]: 38.9% | overall rate of discontinuation due to adverse events [3, 8]: 10.2% | patients discontinued due to diarrhea [3, 8]: 4.5% | overall rate of discontinuation due to adverse events ([3]; after 12 weeks, linaclotide group): 9% | adverse event: abdominal pain [3, 9]: 4% | adverse event: diarrhea [3, 9]: 18% | adverse event: flatulence [3, 9]: 3% | adverse event: headache [3, 9]: 3% | 12-week Abdominal Pain/Abdominal Discomfort Responder: Statistical Significance (266 μg vs. Placebo) ([3]; co-primary efficacy parameter): Yes | 12-week IBS Degree of Relief Responder: Statistical Significance (266 μg vs. Placebo) ([3]; co-primary efficacy parameter): Yes | 26-week Abdominal Pain/Abdominal Discomfort Responder: Statistical Significance (266 μg vs. Placebo) [3, 10]: Yes | 26-week IBS Degree of Relief Responder: Statistical Significance (266 μg vs. Placebo) [3, 10]: Yes | CSBMs per week compared with placebo ([3]; on average, 12 weeks after treatment, FIG. 12C): more CSBMs per week than with the placebo alone | time until abdominal pain was reduced over the pre-treatment baseline ([3]; on average, sustained throughout the 26 week treatment period): 1 to 3 days | 6/12 Week APC + 1 Responder: Statistical Significance (266 μg vs. Placebo) ([3]; primary efficacy endpoint): Yes | 9/12 Week APC 3 + 1 Responder: Statistical Significance (266 μg vs. Placebo) ([3]; primary efficacy endpoint): Yes | 9/12 Week Abdominal Pain Responder: Statistical Significance (266 μg vs. Placebo) ([3]; primary efficacy endpoint): Yes | 9/12 Week CSBM 3 + 1 Responder: Statistical Significance (266 μg vs. Placebo) ([3]; primary efficacy endpoint): Yes | 6/12 Week Abdominal Pain Responder: Statistical Significance (266 μg vs. Placebo) ([3]; secondary efficacy endpoint): Yes | 6/12 Week CSBM + 1 Responder: Statistical Significance (266 μg vs. Placebo) ([3]; secondary efficacy endpoint): Yes | 12-Week Abdominal Discomfort (CFB): Statistical Significance (266 μg vs. Placebo) ([3]; secondary efficacy endpoint): Yes | 12-Week Abdominal Pain (CFB): Statistical Significance (266 μg vs. Placebo) ([3]; secondary efficacy endpoint): Yes | 12-Week Bloating (CFB): Statistical Significance (266 μg vs. Placebo) ([3]; secondary efficacy endpoint): Yes | 12-Week CSBM Frequency Rate(CFB): Statistical Significance (266 μg vs. Placebo) ([3]; secondary efficacy endpoint): Yes | 12-Week Percent of Abdominal Pain-free Days (CFB): Statistical Significance (266 μg vs. Placebo) ([3]; secondary efficacy endpoint): Yes | 12-Week SBM Frequency Rate (CFB): Statistical Significance (266 μg vs. Placebo) ([3]; secondary efficacy endpoint): Yes | 12-Week Severity of Straining (CFB): Statistical Significance (266 μg vs. Placebo) ([3]; secondary efficacy endpoint): Yes | 12-Week Stool Consistency (CFB): Statistical Significance (266 μg vs. Placebo) ([3]; secondary efficacy endpoint): Yes | adverse event: abdominal pain [3, 11]: 4.5% | adverse event: diarrhea [3, 11]: 19.7% | adverse event: flatulence [3, 11]: 3.7% | adverse event: headache [3, 11]: 3.2% | adverse event: viral gastroenteritis [3, 11]: 3.7% | effect on constipation, abdominal discomfort and bloating [4]: reduced constipation, abdominal discomfort, and bloating
